Assay results: patent US7109294B2, “Bacterial glycosyltransferase polypeptides involved in antibiotic resistance” (priority 2001, dated 2006)

Assays:
Type in all cases: cell-based, Pseudomonas aeruginosa
[1] = test system: 45E7 mutant (PA1163 transposon insertion) biofilm grown cells
[2] = test system: 30B1 mutant planktonic cells; assay: microbe, parasite or virus in culture; details: for MBC: Pseudomonas aeruginosa, read-out: MBC-P, MBC of planktonically grown cells
wild type colony biofilm = test system: wild type colony biofilm
[3] = test system: wild type flow cell biofilm
[4] = test system: 30B1 mutant (PA1874 transposon insertion) biofilm grown cells
[5] = test system: P. aeruginosa PA14 wild type planktonic cells; assay: microbe, parasite or virus in culture; details: for MBC: Pseudomonas aeruginosa, PA14, 24 h, read-out: MBC-P, MBC of planktonically grown cells
[6] = test system: 45E7 mutant planktonic cells; assay: microbe, parasite or virus in culture; details: for MBC: Pseudomonas aeruginosa, read-out: MBC-P, MBC of planktonically grown cells
[7] = test system: P. aeruginosa PA14 wild type biofilm grown cells

## NC[C@H]1O[C@H](O[C@H]2[C@H](O)[C@@H](O[C@H]3O[C@H](CO)[C@@H](O)[C@H](N)[C@H]3O)[C@H](N)C[C@@H]2N)[C@H](N)C[C@@H]1O [Tb, tobramycin]
[1]
  MBC of biofilm grown 45E7 lower compared to the wt: 16 fold
  MBC-B, MBC of biofilm grown cells: 25 µg/mL
[2]
  MBC: 8 µg/mL
Wild type colony biofilm
  drop of viability in colony biofilm: ~100 fold
[3]
  live versus dead cells in Tb-treated biofilm (BacLight): more live than dead cells
[4]
  MBC-B, MBC of biofilm grown cells: 100 µg/mL
[5]
  decrease of planktonic MBC relative to the biofilm-grown bacteria: 50 fold
  MBC: 8 µg/mL
[6]
  MBC: 8 µg/mL
[7]
  MBC-B, MBC of biofilm grown cells: 400 µg/mL

## gentamycin [Gm]
[1]
  MBC of biofilm grown 45E7 lower compared to the wt: 8 fold
  MBC-B, MBC of biofilm grown cells: 60 µg/mL
[2]
  MBC-P, MBC of planktonically grown cells: 40 µg/mL
[4]
  MBC-B, MBC of biofilm grown cells: 250 µg/mL
[5]
  MBC-P, MBC of planktonically grown cells: 40 µg/mL
[6]
  MBC-P, MBC of planktonically grown cells: 40 µg/mL
[7]
  MBC-B, MBC of biofilm grown cells: 500 µg/mL

## O=C(O)c1cn(C2CC2)c2cc(N3CCNCC3)c(F)cc2c1=O [Cip, ciprofloxacin]
[1]
  MBC of biofilm grown 45E7 lower compared to the wt: 8 fold
  MBC-B, MBC of biofilm grown cells: 6 µg/mL
[2]
  MBC: 4 µg/mL
[4]
  MBC-B, MBC of biofilm grown cells: 12.5 µg/mL
[5]
  MBC: 4 µg/mL
[6]
  MBC: 4 µg/mL
[7]
  MBC-B, MBC of biofilm grown cells: 50 µg/mL
